Experimental data as given in US20250281485A1, “DIAGNOSIS AND/OR TREATMENT OF HEART FAILURE WITH PRESERVED EJECTION FRACTION” (UNIVERSITEIT MAASTRICHT, priority 2022, published 2025).
Read-outs that look alike come from different tables or passages of the source.

What was measured:
HFpEF patients [1] = details: JAMA 2020; cited from earlier work
HFpEF patients [2] = details: JAMA 2020; cited from earlier work; remark: listed apart in the source
HFpEF patients [3] = details: JAMA 2013; cited from earlier work
sGC = target: T1, sGC (Homo sapiens, UniProt Q02108+Q02153); test: pVASP/VASP concentration response in fresh P-WBC, sGC stimulator; format: cell-based
T1 construct: P-WBC is isolated after a 800g centrifugation and treated with sGCs or sGCa; endogenous in cells; host or cells: fresh human platelet-enriched white-blood-cell fraction (P-WBC) from healthy volunteers
T1 sequence (Q02153 1-619): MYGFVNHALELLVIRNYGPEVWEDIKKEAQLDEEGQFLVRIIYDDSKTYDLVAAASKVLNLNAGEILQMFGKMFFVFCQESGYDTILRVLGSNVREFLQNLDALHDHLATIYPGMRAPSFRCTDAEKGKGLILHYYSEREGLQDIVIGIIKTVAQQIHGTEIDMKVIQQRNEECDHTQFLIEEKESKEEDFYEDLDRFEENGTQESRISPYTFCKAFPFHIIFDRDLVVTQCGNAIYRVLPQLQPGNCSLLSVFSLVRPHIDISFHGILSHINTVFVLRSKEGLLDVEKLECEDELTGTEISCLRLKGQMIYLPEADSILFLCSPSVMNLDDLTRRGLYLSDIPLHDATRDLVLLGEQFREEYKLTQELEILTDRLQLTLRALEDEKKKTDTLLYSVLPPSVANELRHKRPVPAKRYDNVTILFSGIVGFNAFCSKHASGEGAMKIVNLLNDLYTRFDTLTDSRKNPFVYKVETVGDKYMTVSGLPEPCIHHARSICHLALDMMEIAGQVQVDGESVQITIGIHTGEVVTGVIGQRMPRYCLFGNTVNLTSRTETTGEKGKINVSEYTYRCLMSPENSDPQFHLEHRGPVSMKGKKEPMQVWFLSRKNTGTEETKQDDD
T1 sequence (Q02108 1-690): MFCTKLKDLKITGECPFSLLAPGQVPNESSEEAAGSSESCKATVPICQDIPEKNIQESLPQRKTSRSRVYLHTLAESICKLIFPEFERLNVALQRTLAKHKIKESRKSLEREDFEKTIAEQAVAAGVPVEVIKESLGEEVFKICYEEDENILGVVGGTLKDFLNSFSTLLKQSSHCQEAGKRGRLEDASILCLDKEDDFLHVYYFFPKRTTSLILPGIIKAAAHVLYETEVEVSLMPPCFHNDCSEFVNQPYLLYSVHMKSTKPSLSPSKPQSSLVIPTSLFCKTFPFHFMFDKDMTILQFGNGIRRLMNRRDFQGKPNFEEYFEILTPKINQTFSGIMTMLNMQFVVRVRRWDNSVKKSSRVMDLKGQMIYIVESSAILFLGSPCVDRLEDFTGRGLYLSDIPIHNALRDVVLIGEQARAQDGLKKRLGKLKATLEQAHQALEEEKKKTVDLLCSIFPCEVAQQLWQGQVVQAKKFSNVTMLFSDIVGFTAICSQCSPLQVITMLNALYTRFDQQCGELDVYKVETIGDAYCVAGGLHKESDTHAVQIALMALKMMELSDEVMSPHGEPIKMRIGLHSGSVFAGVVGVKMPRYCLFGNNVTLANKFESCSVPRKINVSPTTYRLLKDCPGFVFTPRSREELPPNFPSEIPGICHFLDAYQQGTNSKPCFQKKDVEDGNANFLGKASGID
Experimental: (§1) Human blood was collected from healthy volunteers after obtaining informed consent according to the Declaration of Helsinki. An ethical approval was granted by the FHML Research Ethics Committee of Maastricht University (FHML-REC/2022/055). Whole blood (WB) was collected by venipuncture in ACD-A tubes (sodium citrate: 22.0 g/L, dextrose 24.5 g/L, citric acid: 8.0 g/L). Centrifugations in various speeds (200 g, 400g, 600g, 800g) were performed for 10 minutes in 18 degrees Celsius (acceleration 1, deceleration 0). Plasma was collected and P-WBC was carefully isolated (500 μl). Cell counting was performed with the automated haematology analyzer Sysmex XP-300. Subsequently, P-WBC was diluted with the same volume of JNL-buffer (130 mM NaCl, 3 mM KCl, 9 mM NaHCO3, 0.81 mM KH2PO4, 0.9 mM MgCI2, 10 mM sodium citrate, 6 mM dextrose, 10 mM Tris base, 2 mM HEPES) pH 7.4. Thereafter, 20 μl of diluted P-WBC were further diluted 1:5 with JNL-buffer for the cell treatments. Cell suspensions were treated with BAY 41-2272 (30 μM) and BAY 58-2667 (10 μM) for 10 minutes at 37° C., and with riociguat and runcaciguat for 15 minutes; in some cases with 10 minutes pretreatment with IBMX. Samples were centrifuged for 10 minutes at 750 g. […]
(§2) All data are expressed as mean±standard error of mean (SEM) of at least three independent experiments. […]

apo-sGC = target: T2, apo-sGC (Homo sapiens, UniProt Q02108+Q02153); test: pVASP/VASP concentration response in fresh P-WBC, sGC activator; format: cell-based
T2 construct: P-WBC is isolated after a 800g centrifugation and treated with sGCs or sGCa; endogenous in cells; host or cells: fresh human platelet-enriched white-blood-cell fraction (P-WBC) from healthy volunteers
T2 sequence (Q02153 1-619): T1 sequence (Q02153 1-619)
T2 sequence (Q02108 1-690): T1 sequence (Q02108 1-690)
Experimental: as §1, §2

[4] = in the presence of 500 μM IBMX (FIG. 14D)

OC(CNc1nc(-c2cc(-c3ccon3)n(Cc3ccccc3F)n2)ncc1F)(C(F)(F)F)C(F)(F)F [Praliciguat]
trial outcome (HFpEF patients [1]): failed

COC(=O)Nc1c(N)nc(-c2nn(Cc3ccccc3F)c3ncc(F)cc23)nc1N [vericiguat, methyl N-[4,6-diamino-2-[5-fluoro-1-[(2-fluorophenyl)methyl]pyrazolo[3,4-b]pyridin-3-yl]pyrimidin-5-yl]carbamate]
trial outcome (HFpEF patients [2]): failed

CCCc1nn(C)c2c(=O)[nH]c(-c3cc(S(=O)(=O)N4CCN(C)CC4)ccc3OCC)nc12 [sildenafil]
trial outcome (HFpEF patients [3]): failure

COC(=O)N(C)c1c(N)nc(-c2nn(Cc3ccccc3F)c3ncccc23)nc1N [riociguat, Methyl N-[4,6-Diamino-2-[1-[(2-fluorophenyl)methyl]-1H-pyrazolo[3,4-b]pyridin-3-yl]-5-pyrimidinyl]-N-methyl-carbaminate]
concentration at which pVASP response peaked (sGC; [4]): 100 μM
concentration of maximum effect, pVASP concentration response curve (sGC; without IBMX (FIG. 14B)): > 100 μM

C[C@H]([C@H](C(=O)Nc1cc([C@@H](CC(=O)O)C2CC2)ccc1Cl)c1ccc(Cl)cc1)C(F)(F)F [runcaciguat]
concentration at which pVASP response peaked (apo-sGC; [4]): 1 μM
concentration of maximum effect, pVASP concentration response curve (apo-sGC; without IBMX (FIG. 14B)): 100 μM
